In ChEMBL document CHEMBL1201862, “PubChem BioAssay data set” (2004):
The source made the active and inactive calls.

Experiments:
[1] = target: Protein Wnt-3a (Mus musculus, UniProt P27467); test: antagonism of Wnt3a pathway luciferase reporter – Wnt-LIGHT cells, luminescence, selectivity assay for Gli-SUFU antagonist project, dose response (AID 651570); type: functional; settings: read-out: IC50_Mean;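 note: Wnt-LIGHT reporter cells stimulated with conditioned medium from Wnt3a-producing cells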
[2] = target: Peroxisome proliferator-activated receptor gamma/Nuclear receptor coactivator 3 (Homo sapiens, UniProt P37231); test: TR-FRET dose response biochemical High Throughput Screening assay for agonists of the steroid receptor coactivator 3 (SRC-3) recruitment by the peroxisome proliferator-activated receptor gamma (PPAR gamma): non-selective agonists. [Related pubchem assays: 1301 (Confirmation screen.), 1048 (Primary screen.)]; type: functional
[3] = target: Peroxisome proliferator-activated receptor gamma/Nuclear receptor coactivator 2 (Homo sapiens, UniProt P37231); test: (§1) TR-FRET dose response biochemical High Throughput Screening assay for agonists of the steroid receptor coactivator 2 (SRC-2) recruitment by the peroxisome proliferator-activated receptor gamma (PPAR gamma): non-selective agonists. [Related pubchem assays: 1297, 1032 ]; type: functional
[4] = target: Peroxisome proliferator-activated receptor gamma/Nuclear receptor coactivator 1 (Homo sapiens, UniProt P37231); test: as §1, with “1 (SRC-1)” for “2 (SRC-2)”, “assays (depositor defined):AID1300, AID1808, AID504735, AID631]” for “assays: 1297, 1032 ]”; type: protein assay
[5] = target: T1, Sentrin-specific protease 7 (Homo sapiens, UniProt Q9BQF6); test: inhibition of human SENP7 cleavage activity – biochemical, luminescence, set 2, SAR follow-up (AID 588600); type: functional
T1 sequence (Q9BQF6 whole entry): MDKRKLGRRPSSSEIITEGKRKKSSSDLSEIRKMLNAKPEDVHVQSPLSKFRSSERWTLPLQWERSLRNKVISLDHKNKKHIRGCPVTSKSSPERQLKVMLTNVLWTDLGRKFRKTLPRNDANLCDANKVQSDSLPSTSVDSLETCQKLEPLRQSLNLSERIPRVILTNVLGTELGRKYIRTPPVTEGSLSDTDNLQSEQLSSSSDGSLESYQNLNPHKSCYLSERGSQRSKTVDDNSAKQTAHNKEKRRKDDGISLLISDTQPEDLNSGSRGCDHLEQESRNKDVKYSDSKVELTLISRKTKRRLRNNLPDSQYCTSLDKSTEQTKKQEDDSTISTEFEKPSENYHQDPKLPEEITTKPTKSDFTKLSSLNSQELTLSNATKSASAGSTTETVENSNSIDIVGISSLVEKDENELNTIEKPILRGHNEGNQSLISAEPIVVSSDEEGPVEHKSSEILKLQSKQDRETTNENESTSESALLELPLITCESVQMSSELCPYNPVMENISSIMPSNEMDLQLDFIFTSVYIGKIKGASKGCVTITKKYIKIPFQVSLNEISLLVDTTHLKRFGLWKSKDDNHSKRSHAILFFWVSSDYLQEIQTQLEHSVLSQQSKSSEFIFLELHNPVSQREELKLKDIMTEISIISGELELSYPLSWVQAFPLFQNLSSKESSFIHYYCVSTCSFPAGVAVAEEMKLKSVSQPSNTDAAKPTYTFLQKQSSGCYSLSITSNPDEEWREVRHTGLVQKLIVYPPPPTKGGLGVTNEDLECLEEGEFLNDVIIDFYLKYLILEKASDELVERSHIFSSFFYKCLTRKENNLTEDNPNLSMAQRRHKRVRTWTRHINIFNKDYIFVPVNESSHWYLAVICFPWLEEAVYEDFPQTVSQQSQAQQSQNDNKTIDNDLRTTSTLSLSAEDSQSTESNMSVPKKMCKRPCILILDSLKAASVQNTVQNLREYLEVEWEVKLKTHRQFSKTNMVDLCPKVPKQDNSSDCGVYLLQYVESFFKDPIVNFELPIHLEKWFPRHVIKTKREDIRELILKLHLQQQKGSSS

[6] = target: T2, Sentrin-specific protease 6 (Homo sapiens, UniProt Q9GZR1); test: inhibition of human SENP6 catalytic domain – biochemical, luminescence, set 2, SAR follow-up (AID 588598); type: functional
T2 sequence (Q9GZR1 whole entry): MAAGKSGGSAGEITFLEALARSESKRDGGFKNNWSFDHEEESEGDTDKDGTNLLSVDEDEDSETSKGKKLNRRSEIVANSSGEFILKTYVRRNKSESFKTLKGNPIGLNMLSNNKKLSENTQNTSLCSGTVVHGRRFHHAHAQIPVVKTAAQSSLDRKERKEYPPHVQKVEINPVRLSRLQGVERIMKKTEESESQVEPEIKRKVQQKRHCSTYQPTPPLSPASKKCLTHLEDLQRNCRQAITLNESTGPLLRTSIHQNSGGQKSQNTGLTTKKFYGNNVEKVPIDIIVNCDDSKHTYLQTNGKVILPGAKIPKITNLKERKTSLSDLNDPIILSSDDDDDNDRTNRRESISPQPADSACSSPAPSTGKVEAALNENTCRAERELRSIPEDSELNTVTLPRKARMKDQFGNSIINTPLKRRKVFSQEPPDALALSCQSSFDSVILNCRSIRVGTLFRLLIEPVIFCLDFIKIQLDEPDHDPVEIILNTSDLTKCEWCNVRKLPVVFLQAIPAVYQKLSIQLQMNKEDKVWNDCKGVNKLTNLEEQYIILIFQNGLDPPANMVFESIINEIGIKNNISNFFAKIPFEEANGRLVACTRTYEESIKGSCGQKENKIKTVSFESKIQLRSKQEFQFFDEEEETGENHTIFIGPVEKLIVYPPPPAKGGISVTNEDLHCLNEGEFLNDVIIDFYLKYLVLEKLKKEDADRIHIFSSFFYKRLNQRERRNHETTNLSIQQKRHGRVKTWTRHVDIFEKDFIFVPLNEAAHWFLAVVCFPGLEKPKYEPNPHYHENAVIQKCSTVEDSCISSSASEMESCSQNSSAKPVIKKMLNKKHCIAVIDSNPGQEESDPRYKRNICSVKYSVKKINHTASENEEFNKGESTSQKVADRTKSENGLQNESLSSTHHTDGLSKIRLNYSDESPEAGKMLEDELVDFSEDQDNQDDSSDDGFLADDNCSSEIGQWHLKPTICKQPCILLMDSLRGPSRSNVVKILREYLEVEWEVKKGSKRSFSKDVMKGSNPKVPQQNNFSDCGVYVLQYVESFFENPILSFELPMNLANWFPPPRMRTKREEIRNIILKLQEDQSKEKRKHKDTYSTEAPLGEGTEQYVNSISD

[7] = target: T3, Caspase-3 (Homo sapiens, UniProt P42574); test: inhibition of recombinant caspase-3 activity – biochemical, luminescence, set 2, selectivity assay for SENP protease inhibitor project, SAR follow-up (AID 588599); type: functional
T3 sequence (P42574 whole entry): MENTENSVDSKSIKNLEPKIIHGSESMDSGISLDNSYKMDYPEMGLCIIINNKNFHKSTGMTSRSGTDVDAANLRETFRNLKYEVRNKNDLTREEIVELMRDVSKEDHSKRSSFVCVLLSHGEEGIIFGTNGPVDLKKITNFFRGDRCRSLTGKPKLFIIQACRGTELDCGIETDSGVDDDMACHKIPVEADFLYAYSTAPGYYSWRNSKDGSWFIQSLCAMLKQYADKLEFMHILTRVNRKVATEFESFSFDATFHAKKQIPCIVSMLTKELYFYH

[8] = target: T4, Sentrin-specific protease 8 (Homo sapiens, UniProt Q96LD8); test: inhibition of sentrin protease 8 – biochemical, luminescence, set 2, SAR follow-up (AID 588601); type: functional
T4 sequence (Q96LD8 whole entry): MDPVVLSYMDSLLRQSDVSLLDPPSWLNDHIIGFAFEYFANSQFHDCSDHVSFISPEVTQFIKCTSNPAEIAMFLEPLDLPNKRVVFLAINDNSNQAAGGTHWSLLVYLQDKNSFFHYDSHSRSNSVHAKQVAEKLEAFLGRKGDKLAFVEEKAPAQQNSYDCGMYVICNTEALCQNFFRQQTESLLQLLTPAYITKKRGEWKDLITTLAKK

[9] = cells; type: functional, cell-based
[10] = cells; type: functional, cell-based; remark: listed apart in the source
[11] = bead-based luminescence quenchers, dual-tagged ARNT – biochemical, AlphaScreen, cherry-pick, artefact control for ARNT-TACC3 interaction inhibitor project, dose response (AID 651705); type: functional;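 note: AlphaScreen bead proximity signal that flags compounds interfering with the detection technology; potency reflects signal decrease which marks the compound as an assay artifact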
[12] = inhibition of ARNT PAS-B/TACC3 complex formation – biochemical, AlphaScreen, cherry-picked samples, confirmation (AID 651703); type: functional, Homo sapiens;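 note: His-tagged ARNT PAS-B domain paired with GST-TACC3 E629A dimer coactivator fragment; potency of inhibitors that break up the complex and lower AlphaScreen signal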
[13] = blockers of HIV-1 envelope-mediated cell-cell fusion – cherry-pick, dose response (AID 652057); type: functional, cell-based
[14] = HIV-1 AD8 envelope cell-cell fusion blockers – cherry-pick, dose response (AID 652062); type: functional, cell-based;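 note: luciferase signal from cell-cell fusion driven by HIV-1 clade B AD8 Env; potency is for inhibitors of fusion seen as a drop in luminescence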
[15] = off-target signal loss in HeLa-CEM21 co-culture – HeLa F-luc CTL cells, cherry-picked, counter-screen for HIV-1 Env fusion inhibitor project, dose response (AID 652040); type: functional, cell-based;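 note: potency for signal decrease marking cytotoxic or nonspecific inhibition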
[16] = target: T5, Interleukin-8 (Homo sapiens, UniProt P10145); test: Dose Response confirmation of uHTS small molecule hits for cystic fibrosis induced NFkb Inhibitors in a PAF-induced IL8 counterscreen.; type: functional; settings: read-out: IC50_Mean
T5 sequence (P10145 whole entry): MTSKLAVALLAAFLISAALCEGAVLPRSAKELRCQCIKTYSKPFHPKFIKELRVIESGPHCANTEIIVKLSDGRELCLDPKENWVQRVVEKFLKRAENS

[17] = target: Mitogen-activated protein kinase 10 (Homo sapiens, UniProt P53779); test: Dose response biochemical screening assay for inhibitors of c-Jun N-Terminal Kinase 3 (JNK3). [Related pubchem assays: 746 ]
[18] = target: Photoreceptor-specific nuclear receptor (Homo sapiens, UniProt Q9Y5X4); type: functional, cell-based;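 note: CHO-S cells with Gal4-NCOR and VP16-NR2E3 two-hybrid luciferase reporter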
[19] = target: Melanocortin receptor 4 (Homo sapiens, UniProt P32245); type: functional, cell-based;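 note: Cell-based assay with luminescence read-out, confirmatory dose-response testing for agonist activity of biased ligands at MC4R; human U2OS cells with tagged receptor and beta-arrestin; potency of agonists that increase receptor coupling to beta-arrestin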
[20] = tested on: H9c2; test: cells; type: functional, cell-based; settings: Rattus norvegicus, H9c2, Myocardium;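 note: confirmatory concentration-response retest of ultra-high-throughput screening hits for modulation of myocardial damage; cell death induced by hydrogen peroxide oxidative stress; compound pretreatment for 60 min then peroxide exposure for 2 h; potency is for protecting the cells against peroxide damage rather than for killing them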
[21] = target: T6, Corticotropin-releasing factor receptor 2/Corticotropin-releasing factor-binding protein (Homo sapiens, UniProt P24387+Q13324); test: Dose Response confirmation of uHTS hits for small molecule antagonists of the CRF-binding protein and CRF-R2 receptor complex.; type: functional; settings: read-out: IC50_Mean
T6 sequence (Q13324 whole entry): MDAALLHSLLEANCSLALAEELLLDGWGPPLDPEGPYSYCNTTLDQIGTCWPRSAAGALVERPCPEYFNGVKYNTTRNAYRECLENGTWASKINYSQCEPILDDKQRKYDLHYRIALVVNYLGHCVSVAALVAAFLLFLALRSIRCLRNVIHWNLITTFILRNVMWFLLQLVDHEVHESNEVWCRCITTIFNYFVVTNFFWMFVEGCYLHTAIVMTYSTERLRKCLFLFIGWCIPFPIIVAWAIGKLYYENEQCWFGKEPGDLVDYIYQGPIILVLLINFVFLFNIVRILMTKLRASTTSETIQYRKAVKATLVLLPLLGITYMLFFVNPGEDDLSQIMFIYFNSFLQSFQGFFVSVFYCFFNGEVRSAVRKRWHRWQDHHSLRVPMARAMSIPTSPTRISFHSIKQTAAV
T6 sequence (P24387 whole entry): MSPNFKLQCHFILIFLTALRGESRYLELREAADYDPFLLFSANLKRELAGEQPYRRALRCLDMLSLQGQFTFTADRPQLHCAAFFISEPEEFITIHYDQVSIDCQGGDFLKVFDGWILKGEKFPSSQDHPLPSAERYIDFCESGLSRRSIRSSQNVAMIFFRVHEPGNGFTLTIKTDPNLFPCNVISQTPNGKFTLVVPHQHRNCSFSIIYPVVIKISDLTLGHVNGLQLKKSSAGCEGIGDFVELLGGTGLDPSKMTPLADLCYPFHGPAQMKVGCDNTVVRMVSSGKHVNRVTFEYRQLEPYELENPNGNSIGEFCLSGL

[22] = blockers of CRF-binding protein–CRF-R2 complex – cell-based, uHTS hits, 384-well, dose response (AID 651639); type: functional, Homo sapiens; settings: read-out: IC50_Mean
[23] = target: T6, Corticotropin-releasing factor receptor 2/Corticotropin-releasing factor-binding protein; test: activators of CRF receptor 2 with binding protein – uHTS hits, confirmation (AID 602473); type: functional; settings: read-out: EC50_Mean
[24] = target: Adenosylmethionine-8-amino-7-oxononanoate aminotransferase (Mycobacterium tuberculosis, UniProt P9WQ81); test: Mycobacterium tuberculosis BioA enzyme inhibitor Measured in Biochemical System Using Plate Reader - 2163-02_Inhibitor_Dose_CherryPick_Activity.; type: functional, Mycobacterium tuberculosis UT205
Adenosylmethionine-8-amino-7-oxononanoate aminotransferase, sequence (P9WQ81 whole entry): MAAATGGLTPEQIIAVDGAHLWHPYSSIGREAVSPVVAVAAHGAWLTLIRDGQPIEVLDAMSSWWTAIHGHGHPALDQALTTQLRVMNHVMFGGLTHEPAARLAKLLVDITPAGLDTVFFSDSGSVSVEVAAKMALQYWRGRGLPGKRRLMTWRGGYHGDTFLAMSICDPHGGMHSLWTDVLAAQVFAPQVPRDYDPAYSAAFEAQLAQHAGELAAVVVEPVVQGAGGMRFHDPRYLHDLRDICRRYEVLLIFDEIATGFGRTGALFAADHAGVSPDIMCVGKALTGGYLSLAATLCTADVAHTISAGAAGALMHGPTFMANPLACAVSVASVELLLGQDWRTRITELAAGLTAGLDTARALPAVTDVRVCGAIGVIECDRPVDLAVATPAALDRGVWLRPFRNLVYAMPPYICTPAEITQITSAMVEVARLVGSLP

Photoreceptor-specific nuclear receptor, sequence (Q9Y5X4 whole entry, the tested form may be a part): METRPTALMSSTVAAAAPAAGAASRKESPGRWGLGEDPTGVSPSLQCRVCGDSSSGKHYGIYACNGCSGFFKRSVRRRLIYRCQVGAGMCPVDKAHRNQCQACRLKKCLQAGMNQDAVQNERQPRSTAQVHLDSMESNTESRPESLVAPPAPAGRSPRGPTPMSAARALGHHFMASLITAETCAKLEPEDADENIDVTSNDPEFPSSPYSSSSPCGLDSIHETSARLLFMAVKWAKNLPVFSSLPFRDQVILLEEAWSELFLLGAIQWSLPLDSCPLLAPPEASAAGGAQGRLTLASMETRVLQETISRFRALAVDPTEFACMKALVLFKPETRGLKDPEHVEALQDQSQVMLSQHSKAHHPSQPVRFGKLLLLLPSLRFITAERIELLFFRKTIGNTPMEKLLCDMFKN
Peroxisome proliferator-activated receptor gamma/Nuclear receptor coactivator 2, sequence (P37231 whole entry): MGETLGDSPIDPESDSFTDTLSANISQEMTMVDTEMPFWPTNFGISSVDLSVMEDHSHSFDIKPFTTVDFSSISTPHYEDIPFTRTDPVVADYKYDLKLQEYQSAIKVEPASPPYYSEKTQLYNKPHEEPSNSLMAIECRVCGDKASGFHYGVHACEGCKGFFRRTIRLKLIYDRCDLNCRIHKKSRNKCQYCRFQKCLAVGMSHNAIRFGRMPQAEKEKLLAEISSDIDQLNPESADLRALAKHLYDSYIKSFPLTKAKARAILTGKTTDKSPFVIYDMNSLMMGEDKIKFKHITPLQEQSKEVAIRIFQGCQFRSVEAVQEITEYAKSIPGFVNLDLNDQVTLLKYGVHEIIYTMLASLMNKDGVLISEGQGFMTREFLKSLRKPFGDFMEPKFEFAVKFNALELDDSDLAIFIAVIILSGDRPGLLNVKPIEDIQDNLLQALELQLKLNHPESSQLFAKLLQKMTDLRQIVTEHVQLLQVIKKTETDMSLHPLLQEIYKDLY
Peroxisome proliferator-activated receptor gamma/Nuclear receptor coactivator 2, sequence (Q15596 whole entry, further chain): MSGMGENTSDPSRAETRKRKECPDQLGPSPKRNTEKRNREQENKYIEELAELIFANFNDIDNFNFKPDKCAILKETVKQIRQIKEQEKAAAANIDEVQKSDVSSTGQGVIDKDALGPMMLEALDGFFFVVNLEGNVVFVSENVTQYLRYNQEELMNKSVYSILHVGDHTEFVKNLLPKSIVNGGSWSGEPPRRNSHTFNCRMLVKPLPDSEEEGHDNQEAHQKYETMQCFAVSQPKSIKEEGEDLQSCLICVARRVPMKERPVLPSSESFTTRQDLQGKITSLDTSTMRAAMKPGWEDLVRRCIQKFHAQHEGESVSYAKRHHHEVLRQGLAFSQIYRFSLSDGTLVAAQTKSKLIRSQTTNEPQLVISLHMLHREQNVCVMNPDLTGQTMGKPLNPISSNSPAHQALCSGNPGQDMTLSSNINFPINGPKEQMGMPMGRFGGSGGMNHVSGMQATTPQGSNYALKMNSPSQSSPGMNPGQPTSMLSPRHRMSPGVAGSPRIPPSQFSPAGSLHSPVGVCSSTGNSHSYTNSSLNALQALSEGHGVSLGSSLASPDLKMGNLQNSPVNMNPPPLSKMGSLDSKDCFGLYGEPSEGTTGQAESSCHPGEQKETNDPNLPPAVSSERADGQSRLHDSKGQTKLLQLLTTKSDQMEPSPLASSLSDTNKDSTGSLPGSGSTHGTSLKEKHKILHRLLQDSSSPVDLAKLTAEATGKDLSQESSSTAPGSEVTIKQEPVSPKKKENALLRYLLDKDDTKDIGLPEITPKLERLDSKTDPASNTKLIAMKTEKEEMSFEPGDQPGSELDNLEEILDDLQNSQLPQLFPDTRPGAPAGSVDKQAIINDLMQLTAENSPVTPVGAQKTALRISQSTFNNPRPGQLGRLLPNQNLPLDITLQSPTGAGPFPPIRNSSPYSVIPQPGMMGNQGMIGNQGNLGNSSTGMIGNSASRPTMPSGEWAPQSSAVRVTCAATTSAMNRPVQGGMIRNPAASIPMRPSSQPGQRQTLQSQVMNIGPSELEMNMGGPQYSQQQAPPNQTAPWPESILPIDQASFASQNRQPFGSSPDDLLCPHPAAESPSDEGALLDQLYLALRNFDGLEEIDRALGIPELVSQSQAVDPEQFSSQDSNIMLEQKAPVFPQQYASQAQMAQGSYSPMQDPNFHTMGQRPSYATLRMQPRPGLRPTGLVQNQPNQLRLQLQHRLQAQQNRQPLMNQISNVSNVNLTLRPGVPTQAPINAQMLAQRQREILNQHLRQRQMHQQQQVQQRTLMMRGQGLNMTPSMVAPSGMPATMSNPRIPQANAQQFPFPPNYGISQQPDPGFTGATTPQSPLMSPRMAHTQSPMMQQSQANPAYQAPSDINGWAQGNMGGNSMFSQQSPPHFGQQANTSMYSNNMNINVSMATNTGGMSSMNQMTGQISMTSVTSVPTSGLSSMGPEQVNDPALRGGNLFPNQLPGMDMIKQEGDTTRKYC
Peroxisome proliferator-activated receptor gamma/Nuclear receptor coactivator 3, sequence (P37231 whole entry): as the sequence (P37231 whole entry) above
Peroxisome proliferator-activated receptor gamma/Nuclear receptor coactivator 3, sequence (Q9Y6Q9 whole entry, further chain): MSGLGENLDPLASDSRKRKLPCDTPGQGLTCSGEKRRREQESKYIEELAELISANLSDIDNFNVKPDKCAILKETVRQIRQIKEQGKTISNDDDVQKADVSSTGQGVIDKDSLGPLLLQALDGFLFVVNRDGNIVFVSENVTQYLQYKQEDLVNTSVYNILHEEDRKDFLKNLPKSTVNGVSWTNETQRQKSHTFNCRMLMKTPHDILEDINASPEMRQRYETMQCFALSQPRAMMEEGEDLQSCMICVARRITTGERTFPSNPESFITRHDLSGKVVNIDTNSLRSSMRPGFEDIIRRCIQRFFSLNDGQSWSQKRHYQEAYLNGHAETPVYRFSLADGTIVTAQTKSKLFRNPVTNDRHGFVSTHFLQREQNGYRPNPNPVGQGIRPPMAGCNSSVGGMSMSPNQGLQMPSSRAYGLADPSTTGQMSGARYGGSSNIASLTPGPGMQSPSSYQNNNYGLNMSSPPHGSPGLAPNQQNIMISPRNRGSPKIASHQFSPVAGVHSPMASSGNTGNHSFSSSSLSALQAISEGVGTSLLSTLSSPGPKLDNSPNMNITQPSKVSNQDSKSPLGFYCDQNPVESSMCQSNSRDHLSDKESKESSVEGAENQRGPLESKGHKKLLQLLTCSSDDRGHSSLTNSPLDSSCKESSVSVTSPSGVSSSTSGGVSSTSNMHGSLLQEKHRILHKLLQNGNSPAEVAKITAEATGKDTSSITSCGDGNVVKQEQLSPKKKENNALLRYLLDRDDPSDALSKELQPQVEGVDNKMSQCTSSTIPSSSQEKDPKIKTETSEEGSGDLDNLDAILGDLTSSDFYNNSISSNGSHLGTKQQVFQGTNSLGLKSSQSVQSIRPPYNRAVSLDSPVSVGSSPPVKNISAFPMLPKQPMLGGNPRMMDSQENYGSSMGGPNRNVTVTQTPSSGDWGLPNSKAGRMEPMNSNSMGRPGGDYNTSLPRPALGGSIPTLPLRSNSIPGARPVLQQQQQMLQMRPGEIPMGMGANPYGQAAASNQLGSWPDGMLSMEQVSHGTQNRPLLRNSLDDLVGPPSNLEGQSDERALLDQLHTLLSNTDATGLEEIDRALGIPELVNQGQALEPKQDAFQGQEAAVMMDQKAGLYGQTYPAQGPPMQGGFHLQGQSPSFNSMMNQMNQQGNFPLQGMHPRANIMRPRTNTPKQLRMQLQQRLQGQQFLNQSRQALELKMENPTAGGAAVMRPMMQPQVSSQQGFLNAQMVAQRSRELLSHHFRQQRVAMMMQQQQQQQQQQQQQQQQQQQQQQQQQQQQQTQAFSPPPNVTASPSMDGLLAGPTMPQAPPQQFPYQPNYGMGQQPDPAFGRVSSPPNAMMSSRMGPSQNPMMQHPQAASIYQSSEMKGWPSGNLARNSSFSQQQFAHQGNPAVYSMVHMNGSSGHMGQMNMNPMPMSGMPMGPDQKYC
Melanocortin receptor 4, sequence (P32245 whole entry): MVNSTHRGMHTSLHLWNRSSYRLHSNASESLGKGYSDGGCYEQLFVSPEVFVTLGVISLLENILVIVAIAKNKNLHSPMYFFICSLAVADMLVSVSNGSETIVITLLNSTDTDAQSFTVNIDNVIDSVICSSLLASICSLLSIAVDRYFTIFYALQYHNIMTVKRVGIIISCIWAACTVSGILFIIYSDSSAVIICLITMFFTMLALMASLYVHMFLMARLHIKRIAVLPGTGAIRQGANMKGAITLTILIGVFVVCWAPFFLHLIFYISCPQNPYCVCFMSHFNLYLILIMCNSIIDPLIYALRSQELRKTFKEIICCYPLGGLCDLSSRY

Structure (SMILES): CCOC(=O)CSc1c(-c2cccs2)[nH]c2ccccc12
- IC50 [1]: 17 µM (active)
- EC50 [2]: 53.8 µM (not active)
- EC50 [3]: 13.8 µM (not active)
- EC50 [4]: 13.2 µM (inactive)

Structure (SMILES): CN(/N=C/c1c[nH]c2ccccc12)c1cnn(-c2ccc(F)c(Cl)c2)c(=O)c1Cl
- IC50 [5]: > 99 µM (inactive)
- IC50 [6]: > 99 µM (inactive)
- IC50 [7]: > 99 µM (inactive)
- IC50 [8]: > 99 µM (inactive)
- EC50 [9]: > 350 µM (not active)
- EC50 [10]: 55.6 µM (active)

Structure (SMILES): Cc1ccccc1/C=N/N1C(=O)CSC1=S
- AC50 [11]: 135 µM (active)
- AC50 [12]: 109 µM (active)

Structure (SMILES): COc1ccc2ncn(-c3ccccc3)c2c1
- AC50 [13]: 11.6 µM (active)
- AC50 [14]: 40.2 µM (active)
- AC50 [15]: 20.1 µM (active)
- IC50 [16]: 17.3 µM (inactive)
- IC50 [17]: 34.9 µM (not active)

Structure (SMILES): O=C1NC(=O)C(=Cc2ccc(Cl)cc2Cl)S1
- IC50 [18]: 4.65 µM (active)

Structure (SMILES): COc1cccc(-c2cnc3c(NC=O)cc(-c4ccc(O)c(OC)c4)cn23)c1
- EC50 [19]: > 89.2 µM (inactive)
- IC50 [20]: > 79 µM (inactive)

Structure (SMILES): O=[N+]([O-])c1ccc(NS(=O)(=O)c2ccccc2)c(Cl)c1
- IC50 [18]: 3.22 µM (active)
- IC50 [21]: 4.45 µM (active)
- IC50 [22]: > 20 µM (inactive)
- EC50 [23]: > 53 µM (inactive)

Structure (SMILES): CC(=O)c1ccc(C(=O)N2CCCC(Nc3ccc(C(C)C)cc3)C2)s1 (stereo not drawn)
- AC50 [24]: 0.833 µM (active)
- EC50 [9]: > 350 µM (not active)
- EC50 [10]: > 350 µM (not active)

Structure (SMILES): O=C(Nc1ccc(F)c(F)c1)C1CCN(S(=O)(=O)c2cccs2)CC1
- AC50 [24]: 0.564 µM (active)
